Measured values as given in patent US9062124B2, “GIP-based mixed agonists for treatment of metabolic disorders and obesity” (priority 2008, dated 2015).
pEC50: −log10 of the molar value. Where a SMILES comes first, the peptide text is derived from it. [ ]: non-standard residue; d: D form. The star is where a group is joined. Stearoyl = CCCCCCCCCCCCCCCCCC(=O)*; Palmitoyl = CCCCCCCCCCCCCCCC(=O)*; Myristoyl = CCCCCCCCCCCCCC(=O)*; Aib = CC(C)(N)C(=O)O

Legend:
Type in all cases: cell-based
GIP receptor = target: T1, GIP receptor (Homo sapiens, UniProt P48546); assay: cAMP synthesis functional assay (firefly luciferase reporter in HEK293 cells), GIP receptor; details: for pEC50: GIP Receptor EC50, cAMP luciferase reporter assay as in Example 16; for GIP Receptor relative activity: relative to the standard (Std.) EC50 of the same run
T1 construct: expressed in transfected cells; host or cells: HEK293
T1 sequence (P48546 22-466): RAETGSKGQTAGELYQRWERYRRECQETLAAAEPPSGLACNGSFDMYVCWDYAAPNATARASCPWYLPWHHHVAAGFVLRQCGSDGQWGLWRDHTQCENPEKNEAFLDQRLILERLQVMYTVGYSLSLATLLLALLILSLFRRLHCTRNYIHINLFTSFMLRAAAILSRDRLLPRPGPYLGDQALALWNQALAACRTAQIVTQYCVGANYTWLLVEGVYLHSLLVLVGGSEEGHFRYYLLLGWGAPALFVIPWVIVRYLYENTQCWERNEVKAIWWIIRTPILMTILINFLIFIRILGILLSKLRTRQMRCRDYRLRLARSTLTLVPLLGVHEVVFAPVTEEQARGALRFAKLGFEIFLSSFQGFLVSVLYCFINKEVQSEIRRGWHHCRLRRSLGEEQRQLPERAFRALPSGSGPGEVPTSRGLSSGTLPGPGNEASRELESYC

GLP-1 receptor = target: T2, GLP-1 receptor (Homo sapiens, UniProt P43220); assay: cAMP synthesis functional assay (firefly luciferase reporter in HEK293 cells), GLP-1 receptor; details: for pEC50: GLP-1 Receptor EC50, cAMP luciferase reporter assay as in Example 16; for GLP-1 Receptor relative activity: relative to the standard (Std.) EC50 of the same run
T2 construct: expressed in transfected cells; host or cells: HEK293

glucagon receptor = target: T3, glucagon receptor (Homo sapiens, UniProt P47871); assay: cAMP synthesis functional assay (firefly luciferase reporter in HEK293 cells), glucagon receptor; details: for pEC50: Glucagon Receptor EC50, cAMP luciferase reporter assay as in Example 16; for Glucagon Receptor relative activity: relative to the standard (Std.) EC50 of the same run
T3 construct: expressed in transfected cells; host or cells: HEK293
T3 sequence (P47871 26-477): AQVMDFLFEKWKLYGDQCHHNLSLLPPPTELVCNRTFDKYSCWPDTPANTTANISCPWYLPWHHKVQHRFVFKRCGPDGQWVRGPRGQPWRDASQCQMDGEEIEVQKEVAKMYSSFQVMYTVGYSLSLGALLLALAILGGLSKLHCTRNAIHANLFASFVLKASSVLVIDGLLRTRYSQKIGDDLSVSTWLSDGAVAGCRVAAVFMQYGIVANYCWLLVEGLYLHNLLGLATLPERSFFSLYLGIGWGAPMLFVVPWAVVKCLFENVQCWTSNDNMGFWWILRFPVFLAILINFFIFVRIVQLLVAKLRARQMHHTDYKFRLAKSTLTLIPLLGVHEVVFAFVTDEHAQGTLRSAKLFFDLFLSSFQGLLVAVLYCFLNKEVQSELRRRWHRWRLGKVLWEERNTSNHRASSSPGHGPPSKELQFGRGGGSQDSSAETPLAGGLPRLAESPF

T2 sequence (P43220 24-463, species assumed): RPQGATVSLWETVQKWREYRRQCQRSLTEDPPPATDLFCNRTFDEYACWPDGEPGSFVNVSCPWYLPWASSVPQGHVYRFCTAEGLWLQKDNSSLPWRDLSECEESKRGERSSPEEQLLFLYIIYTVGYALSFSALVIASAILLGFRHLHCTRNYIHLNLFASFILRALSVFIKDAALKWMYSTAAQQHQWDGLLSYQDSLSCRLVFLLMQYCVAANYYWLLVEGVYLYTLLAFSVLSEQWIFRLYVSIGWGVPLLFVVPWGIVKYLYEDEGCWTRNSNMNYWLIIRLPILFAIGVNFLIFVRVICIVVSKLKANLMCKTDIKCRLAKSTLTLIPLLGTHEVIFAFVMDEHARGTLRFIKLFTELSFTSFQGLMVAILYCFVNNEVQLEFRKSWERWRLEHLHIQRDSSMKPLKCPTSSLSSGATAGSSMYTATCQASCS

| SMILES | pEC50 (GIP receptor) | GIP Receptor relative activity (GIP receptor) [%] | pEC50 (GLP-1 receptor) | GLP-1 Receptor relative activity (GLP-1 receptor) [%] | pEC50 (glucagon receptor) | Glucagon Receptor relative activity (glucagon receptor) [%] |
| --- | --- | --- | --- | --- | --- | --- |
| CC[C@H](C)[C@H](NC(=O)[C@H](CO)NC(=O)[C@H](CCCCN)NC(=O)[C@H](CC(=O)O)NC(=O)[C@H](CO)NC(=O)[C@@H](NC(=O)[C@H](Cc1ccccc1)NC(=O)[C@@H](NC(=O)CNC(=O)[C@H](CCC(=O)O)NC(=O)C(C)(C)NC(=O)[C@@H](N)Cc1ccc(O)cc1)[C@@H](C)O)[C@@H](C)O)C(=O)N[C@@H](Cc1ccc(O)cc1)C(=O)N[C@@H](CC(C)C)C(=O)N[C@@H](CC(=O)O)C(=O)N[C@@H](CCCCN)C(=O)N[C@@H](CCC(N)=O)C(=O)N[C@@H](C)C(=O)N[C@@H](C)C(=O)NC(C)(C)C(=O)N[C@@H](CCC(=O)O)C(=O)N[C@@H](Cc1ccccc1)C(=O)N[C@H](C(=O)N[C@@H](CC(N)=O)C(=O)N[C@@H](Cc1c[nH]c2ccccc12)C(=O)N[C@@H](CC(C)C)C(=O)N[C@@H](CC(C)C)C(=O)N[C@@H](C)C(=O)NCC(=O)NCC(=O)N1CCC[C@H]1C(=O)N[C@@H](CO)C(=O)N[C@@H](CO)C(=O)NCC(=O)N[C@@H](C)C(=O)N1CCC[C@H]1C(=O)N1CCC[C@H]1C(=O)N1CCC[C@H]1C(=O)N[C@@H](CO)C(N)=O)C(C)C [mt-272] (H-Y[Aib]EGTFTSDKSIYLDKQAA[Aib]EFVNWLLAGGPSSGAPPPS-NH2; N-terminus assumed) | 10.62 | 33.20 | 8.91 | 1.60 | 5.97 | 0.02 |
| CCCCCCCCCCCCCC(=O)NCCCC[C@H](NC(=O)[C@H](CC(=O)O)NC(=O)[C@H](CO)NC(=O)[C@@H](NC(=O)[C@H](Cc1ccccc1)NC(=O)[C@@H](NC(=O)CNC(=O)[C@H](CCC(=O)O)NC(=O)C(C)(C)NC(=O)[C@@H](N)Cc1ccc(O)cc1)[C@@H](C)O)[C@@H](C)O)C(=O)N[C@@H](CO)C(=O)N[C@H](C(=O)N[C@@H](Cc1ccc(O)cc1)C(=O)N[C@@H](CC(C)C)C(=O)N[C@@H](CC(=O)O)C(=O)N[C@@H](CCCCN)C(=O)N[C@@H](CCC(N)=O)C(=O)N[C@@H](C)C(=O)N[C@@H](C)C(=O)NC(C)(C)C(=O)N[C@@H](CCC(=O)O)C(=O)N[C@@H](Cc1ccccc1)C(=O)N[C@H](C(=O)N[C@@H](CC(N)=O)C(=O)N[C@@H](Cc1c[nH]c2ccccc12)C(=O)N[C@@H](CC(C)C)C(=O)N[C@@H](CC(C)C)C(=O)N[C@@H](C)C(=O)NCC(N)=O)C(C)C)[C@@H](C)CC [mt-282] (H-Y[Aib]EGTFTSDK(Myristoyl)SIYLDKQAA[Aib]EFVNWLLAG-NH2; N-terminus assumed) |  | 76.69 | 10.87 | 44.03 | 8.61 | 1.18 |
| CCCCCCCCCCCCCCCC(=O)NCCCC[C@H](NC(=O)[C@H](CC(=O)O)NC(=O)[C@H](CO)NC(=O)[C@@H](NC(=O)[C@H](Cc1ccccc1)NC(=O)[C@@H](NC(=O)CNC(=O)[C@H](CCC(=O)O)NC(=O)C(C)(C)NC(=O)[C@@H](N)Cc1ccc(O)cc1)[C@@H](C)O)[C@@H](C)O)C(=O)N[C@@H](CO)C(=O)N[C@H](C(=O)N[C@@H](Cc1ccc(O)cc1)C(=O)N[C@@H](CC(C)C)C(=O)N[C@@H](CC(=O)O)C(=O)N[C@@H](CCCCN)C(=O)N[C@@H](CCC(N)=O)C(=O)N[C@@H](C)C(=O)N[C@@H](C)C(=O)NC(C)(C)C(=O)N[C@@H](CCC(=O)O)C(=O)N[C@@H](Cc1ccccc1)C(=O)N[C@H](C(=O)N[C@@H](CC(N)=O)C(=O)N[C@@H](Cc1c[nH]c2ccccc12)C(=O)N[C@@H](CC(C)C)C(=O)N[C@@H](CC(C)C)C(=O)N[C@@H](C)C(=O)NCC(N)=O)C(C)C)[C@@H](C)CC [mt-283] (H-Y[Aib]EGTFTSDK(Palmitoyl)SIYLDKQAA[Aib]EFVNWLLAG-NH2; N-terminus assumed) |  | 83.61 | 10.80 | 37.34 | 8.10 | 0.36 |
| CCCCCCCCCCCCCCCCCC(=O)NCCCC[C@H](NC(=O)[C@H](CC(=O)O)NC(=O)[C@H](CO)NC(=O)[C@@H](NC(=O)[C@H](Cc1ccccc1)NC(=O)[C@@H](NC(=O)CNC(=O)[C@H](CCC(=O)O)NC(=O)C(C)(C)NC(=O)[C@@H](N)Cc1ccc(O)cc1)[C@@H](C)O)[C@@H](C)O)C(=O)N[C@@H](CO)C(=O)N[C@H](C(=O)N[C@@H](Cc1ccc(O)cc1)C(=O)N[C@@H](CC(C)C)C(=O)N[C@@H](CC(=O)O)C(=O)N[C@@H](CCCCN)C(=O)N[C@@H](CCC(N)=O)C(=O)N[C@@H](C)C(=O)N[C@@H](C)C(=O)NC(C)(C)C(=O)N[C@@H](CCC(=O)O)C(=O)N[C@@H](Cc1ccccc1)C(=O)N[C@H](C(=O)N[C@@H](CC(N)=O)C(=O)N[C@@H](Cc1c[nH]c2ccccc12)C(=O)N[C@@H](CC(C)C)C(=O)N[C@@H](CC(C)C)C(=O)N[C@@H](C)C(=O)NCC(N)=O)C(C)C)[C@@H](C)CC [mt-284] (H-Y[Aib]EGTFTSDK(Stearoyl)SIYLDKQAA[Aib]EFVNWLLAG-NH2; N-terminus assumed) |  | 54.84 | 10.81 | 38.06 | 8.38 | 0.69 |
| CC[C@H](C)[C@H](NC(=O)[C@H](CO)NC(=O)[C@H](Cc1ccc(O)cc1)NC(=O)[C@H](CC(=O)O)NC(=O)[C@H](CO)NC(=O)[C@@H](NC(=O)[C@H](Cc1ccccc1)NC(=O)[C@@H](NC(=O)CNC(=O)[C@H](CCC(=O)O)NC(=O)C(C)(C)NC(=O)[C@@H](N)Cc1ccc(O)cc1)[C@@H](C)O)[C@@H](C)O)C(=O)N[C@@H](Cc1ccc(O)cc1)C(=O)N[C@@H](CC(C)C)C(=O)N[C@@H](CC(=O)O)C(=O)N[C@@H](CCCCN)C(=O)N[C@@H](CCC(N)=O)C(=O)N[C@@H](C)C(=O)N[C@@H](C)C(=O)NC(C)(C)C(=O)N[C@@H](CCC(=O)O)C(=O)N[C@@H](Cc1ccccc1)C(=O)N[C@H](C(=O)N[C@@H](CS)C(=O)N[C@@H](Cc1c[nH]c2ccccc12)C(=O)N[C@@H](CC(C)C)C(=O)N[C@@H](CC(C)C)C(=O)N[C@@H](C)C(=O)NCC(=O)NCC(=O)N1CCC[C@H]1C(=O)N[C@@H](CO)C(=O)N[C@@H](CO)C(=O)NCC(=O)N[C@@H](C)C(=O)N1CCC[C@H]1C(=O)N1CCC[C@H]1C(=O)N1CCC[C@H]1C(=O)N[C@@H](CO)C(=O)N[C@@H](CCCCN)C(N)=O)C(C)C [mt-308] | 11.24 | 285.96 |  | 68.35 | 7.91 | 0.39 |
